Measurements as given in ChEMBL document CHEMBL1156506, “Changes to the HIV long terminal repeat and to HIV integrase differentially impact HIV integrase assembly, activity, and the binding of strand transfer inhibitors” (J Biol Chem, 2007).

Tests used:
Settings in all cases: tested as the 3H-labelled form
[1] = test system: Human immunodeficiency virus; test: Binding affinity to HIV wild type integrase using U5 GTCC LTR relative to wild type LTR
[2] = test system: Human immunodeficiency virus type 1 integrase (Human immunodeficiency virus 1), Q7ZJM1 [N155H]; test: Binding affinity to HIV recombinant integrase N155H mutant using U5 GddA LTR relative to wild type LTR
[3] = test system: Human immunodeficiency virus; test: Binding affinity to HIV wild type integrase using U5 GTCA/CddC LTR relative to wild type LTR
[4] = test system: Human immunodeficiency virus type 1 integrase (Human immunodeficiency virus 1), Q7ZJM1 [N155H]; test: Inhibition of HIV recombinant integrase N155H mutant assessed as specific strand transfer activity using U5 GdCA LTR by scintillation proximity assay relative to wild type LTR; set-up: scale not given: the % may be the effect or the level left
[5] = test system: Human immunodeficiency virus; test: Inhibition of HIV wild type integrase assessed as strand transfer activity using U5 GTCA/CG LTR by scintillation proximity assay relative to wild type LTR; set-up: scale not given: the % may be the effect or the level left
[6] = test system: Human immunodeficiency virus; test: Binding affinity to HIV wild type integrase using U5 GTdA LTR relative to wild type LTR
[7] = test system: Human immunodeficiency virus; test: Binding affinity to HIV wild type integrase using U5 GTAT LTR relative to wild type LTR
[8] = test system: Human immunodeficiency virus type 1 integrase (Human immunodeficiency virus 1), Q7ZJM1 [N155H]; test: Binding affinity to HIV recombinant integrase N155H mutant using U5 GTC LTR relative to wild type LTR
[9] = test system: Human immunodeficiency virus; test: Inhibition of HIV wild type integrase assessed as strand transfer activity using U5 GTGC LTR by scintillation proximity assay relative to wild type LTR; set-up: scale not given: the % may be the effect or the level left
[10] = test system: Human immunodeficiency virus type 1 integrase (Human immunodeficiency virus 1), Q7ZJM1 [Q148R]; test: Binding affinity to HIV recombinant integrase Q148R mutant using U5 GTCA LTR relative to wild type LTR
[11] = test system: Human immunodeficiency virus type 1 integrase (Human immunodeficiency virus 1), Q7ZJM1 [N155H]; test: Inhibition of HIV recombinant integrase N155H mutant assessed as specific strand transfer activity using U5 INTCA LTR by scintillation proximity assay relative to wild type LTR; set-up: scale not given: the % may be the effect or the level left
[12] = test system: Human immunodeficiency virus; test: Inhibition of HIV wild type integrase assessed as specific strand transfer activity using U5 GACA LTR by scintillation proximity assay relative to wild type LTR; set-up: scale not given: the % may be the effect or the level left
[13] = test system: Human immunodeficiency virus type 1 integrase (Human immunodeficiency virus 1), Q7ZJM1 [N155H]; test: Binding affinity to HIV recombinant integrase N155H mutant using U5 TTCA LTR relative to wild type LTR
[14] = test system: Human immunodeficiency virus type 1 integrase (Human immunodeficiency virus 1), Q7ZJM1 [N155H]; test: Binding affinity to HIV recombinant integrase N155H mutant using U5 dTCA LTR relative to wild type LTR
[15] = test system: Human immunodeficiency virus type 1 integrase (Human immunodeficiency virus 1), Q7ZJM1 [Q148R]; test: Binding affinity to HIV recombinant integrase Q148R mutant using U5 TTCA LTR relative to wild type LTR
[16] = test system: Human immunodeficiency virus; test: Binding affinity to HIV wild type integrase using U5 GInCA LTR relative to wild type LTR
[17] = test system: Human immunodeficiency virus type 1 integrase (Human immunodeficiency virus 1), Q7ZJM1 [N155H]; test: Inhibition of HIV recombinant integrase N155H mutant assessed as strand transfer activity using U5 GTC LTR by scintillation proximity assay relative to wild type LTR; set-up: scale not given: the % may be the effect or the level left
[18] = test system: Human immunodeficiency virus type 1 integrase (Human immunodeficiency virus 1), Q7ZJM1 [N155H]; test: Binding affinity to HIV recombinant integrase N155H mutant using U5 GTdA LTR relative to wild type LTR
[19] = test system: Human immunodeficiency virus; test: Inhibition of HIV wild type integrase assessed as strand transfer activity usingU5 GTCA/CT LTR by scintillation proximity assay relative to wild type LTR; set-up: scale not given: the % may be the effect or the level left
[20] = test system: Human immunodeficiency virus type 1 integrase (Human immunodeficiency virus 1), Q7ZJM1 [Q148R]; test: Inhibition of HIV recombinant integrase Q148R mutant assessed as strand transfer activity using U5 GTCA LTR by scintillation proximity assay relative to wild type LTR; set-up: scale not given: the % may be the effect or the level left
[21] = test system: Human immunodeficiency virus; test: Binding affinity to HIV wild type integrase using U5 ApTCA LTR relative to wild type LTR
[22] = test system: Human immunodeficiency virus; test: Inhibition of HIV wild type integrase assessed as strand transfer activity using U5 GTAT LTR by scintillation proximity assay relative to wild type LTR; set-up: scale not given: the % may be the effect or the level left
[23] = test system: Human immunodeficiency virus; test: Inhibition of HIV wild type integrase assessed as specific strand transfer activity using U5 INTCA LTR by scintillation proximity assay relative to wild type LTR; set-up: scale not given: the % may be the effect or the level left
[24] = test system: Human immunodeficiency virus type 1 integrase (Human immunodeficiency virus 1), Q7ZJM1 [N155H]; test: Inhibition of HIV recombinant integrase N155H mutant assessed as strand transfer activity using U5 GTCA LTR by scintillation proximity assay relative to wild type LTR; set-up: scale not given: the % may be the effect or the level left
[25] = test system: Human immunodeficiency virus; test: Binding affinity to HIV wild type integrase using U5 TTCA LTR relative to wild type LTR
[26] = test system: Human immunodeficiency virus type 1 integrase (Human immunodeficiency virus 1), Q7ZJM1 [Q148R]; test: Inhibition of U5 GTCA LTR HIV recombinant integrase Q148R mutant assessed as specific strand transfer activity using by scintillation proximity assay relative to wild type LTR; set-up: scale not given: the % may be the effect or the level left
[27] = test system: Human immunodeficiency virus; test: Inhibition of HIV wild type integrase assessed as specific strand transfer activity using U5 TTCA LTR by scintillation proximity assay relative to wild type LTR; set-up: scale not given: the % may be the effect or the level left
[28] = test system: Human immunodeficiency virus type 1 integrase (Human immunodeficiency virus 1), Q7ZJM1 [Q148R]; test: Inhibition of U5 INTCA LTR HIV recombinant integrase Q148R mutant assessed as specific strand transfer activity using by scintillation proximity assay relative to wild type LTR; set-up: scale not given: the % may be the effect or the level left
[29] = test system: Human immunodeficiency virus type 1 integrase (Human immunodeficiency virus 1), Q7ZJM1 [N155H]; test: Inhibition of HIV recombinant integrase N155H mutant assessed as strand transfer activity using U5 GTdA LTR by scintillation proximity assay relative to wild type LTR; set-up: scale not given: the % may be the effect or the level left
[30] = test system: Human immunodeficiency virus; test: Binding affinity to HIV wild type integrase using U5 GTC LTR relative to wild type LTR
[31] = test system: Human immunodeficiency virus type 1 integrase (Human immunodeficiency virus 1), Q7ZJM1 [Q148R]; test: Inhibition of U5 GTC LTR HIV recombinant integrase Q148R mutant assessed as specific strand transfer activity using by scintillation proximity assay relative to wild type LTR; set-up: scale not given: the % may be the effect or the level left
[32] = test system: Human immunodeficiency virus; test: Binding affinity to HIV wild type integrase U5 CTCA LTR relative to wild type LTR
[33] = test system: Human immunodeficiency virus type 1 integrase (Human immunodeficiency virus 1), Q7ZJM1 [N155H]; test: Binding affinity to HIV recombinant integrase N155H mutant using U5 GTCA LTR relative to wild type LTR
[34] = test system: Human immunodeficiency virus; test: Binding affinity to HIV wild type integrase using U5 GTCA/C LTR relative to wild type LTR
[35] = test system: Human immunodeficiency virus type 1 integrase (Human immunodeficiency virus 1), Q7ZJM1 [N155H]; test: Inhibition of HIV recombinant integrase N155H mutant assessed as specific strand transfer activity using U5 ApTCA LTR by scintillation proximity assay relative to wild type LTR; set-up: scale not given: the % may be the effect or the level left
[36] = test system: Human immunodeficiency virus; test: Inhibition of HIV wild type integrase assessed as strand transfer activity using U5 GTGT LTR by scintillation proximity assay relative to wild type LTR; set-up: scale not given: the % may be the effect or the level left
[37] = test system: Human immunodeficiency virus type 1 integrase (Human immunodeficiency virus 1), Q7ZJM1 [N155H]; test: Binding affinity to HIV recombinant integrase N155H mutant using U5 GdCA LTR relative to wild type LTR
[38] = test system: Human immunodeficiency virus type 1 integrase (Human immunodeficiency virus 1), Q7ZJM1 [N155H]; test: Binding affinity to HIV recombinant integrase N155H mutant using U5 INTCA LTR relative to wild type LTR
[39] = test system: Human immunodeficiency virus; test: Inhibition of HIV wild type integrase assessed as strand transfer activity using U5 GTAA LTR by scintillation proximity assay relative to wild type LTR; set-up: scale not given: the % may be the effect or the level left
[40] = test system: Human immunodeficiency virus type 1 integrase (Human immunodeficiency virus 1), Q7ZJM1 [N155H]; test: Binding affinity to HIV recombinant integrase N155H mutant using U5 ApTCA LTR relative to wild type LTR
[41] = test system: Human immunodeficiency virus; test: Binding affinity to HIV wild type integrase using U5 GdC LTR relative to wild type LTR
[42] = test system: Human immunodeficiency virus; test: Inhibition of HIV wild type integrase assessed as specific strand transfer activity using U5 GTCA LTR by scintillation proximity assay relative to wild type LTR; set-up: scale not given: the % may be the effect or the level left
[43] = test system: Human immunodeficiency virus type 1 integrase (Human immunodeficiency virus 1), Q7ZJM1 [Q148R]; test: Inhibition of U5 ApTCA LTR HIV recombinant integrase Q148R mutant assessed as specific strand transfer activity using by scintillation proximity assay relative to wild type LTR; set-up: scale not given: the % may be the effect or the level left
[44] = test system: Human immunodeficiency virus type 1 integrase (Human immunodeficiency virus 1), Q7ZJM1 [N155H]; test: Inhibition of HIV recombinant integrase N155H mutant assessed as strand transfer activity using U5 GddA LTR by scintillation proximity assay relative to wild type LTR; set-up: scale not given: the % may be the effect or the level left

Cn1c(N2CCCCS2(=O)=O)nc(C(=O)NCc2ccc(F)cc2)c(O)c1=O [BMS-707035]
Activity [1]: 75%
Activity [2]: 9%
Activity [3]: 75%
Activity [4]: 62%
Activity [5]: < 25%
Activity [6]: 37%
Activity [7]: < 25%
Activity [8]: 4%
Activity [9]: 25%
Activity [10]: 3%
Activity [11]: 135%
Activity [12]: 97%
Activity [13]: 1%
Activity [14]: 2%
Activity [15]: 1%
Activity [16]: 28%
Activity [17]: 90%
Activity [18]: 12%
Activity [19]: < 25%
Activity [20]: 26%
Activity [21]: 24%
Activity [22]: < 25%
Activity [23]: 167%
Activity [24]: 84%
Activity [25]: 8%
Activity [26]: 93%
Activity [27]: 154%
Activity [28]: > 12%
Activity [29]: 17%
Activity [30]: 59%
Activity [31]: 83%
Activity [32]: < 25%
Activity [33]: 10%
Activity [34]: < 25%
Activity [35]: > 40%
Activity [36]: 25%
Activity [37]: 21%
Activity [38]: 21%
Activity [39]: 28%
Activity [40]: 2%
Activity [41]: 36%
Activity [42]: 100%
Activity [43]: > 8%
Activity [44]: 0.6%
